Source: patent US10870638B2, “Pyridazinone compound or its salt, and herbicide containing it” (ISHIHARA SANGYO KAISHA, LTD., priority 2016, dated 2020)

Assays:
Format in all cases: in vivo
Conditions in all cases: active ingredient amount 31 g/ha, 14th day after application
[1] = system: barnyardgrass (Echinochloa crus-qalli L.); experiment: Test Example 1: foliar treatment, growth inhibition rate on 14th day
Method in brief: (§1)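 Visual 0–100% inhibition scoring (100 = complete kill) at 14 days after foliar treatment of soil-grown seedlings at species-specific leaf stages, with the compound sprayed as a wettable powder or emulsifiable concentrate dilution.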

corn (Zea mays L.) [2] = experiment: as above
Method in brief: as §1

[3] = system: crabgrass (Digitaria sanquinalis L.); experiment: as above
Method in brief: as §1

[4] = system: green foxtail (Setaria viridis L.); experiment: as above
Method in brief: (§2)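 Inhibition was rated visually 14 days after treatment on a 0–100% scale, where 100 is complete kill. Compounds, formulated as wettable powders or emulsifiable concentrates at set active-ingredient amounts, were diluted to 1,000 L/ha with 0.1 vol% spreader. The dilutions were sprayed post-emergence onto soybean (primary leaf), rice (0.2–2.7 leaf), wild oat (0.4–1.2) and green foxtail (0.5–3.2).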

[5] = system: italian ryegrass (Lolium multiflorum Lam.); experiment: as above
Method in brief: as §1

[6] = system: redroot pigweed (Amaranthus retroflexus L.); experiment: as above
Method in brief: as §1

rice (Oryza sativa L.) [7] = experiment: as above
Method in brief: as §2

[8] = system: soybean (Glycine max Merr.); experiment: as above
Method in brief: as §2

[9] = system: wheat (Triticum aestivum L.); experiment: as above
Method in brief: as §1

[10] = system: wild oat (Avena fatua L.); experiment: as above
Method in brief: as §2

[11] = system: barnyardgrass (Echinochloa crus-qalli L.); experiment: Test Example 2: soil application on the day after sowing, growth inhibition rate on 14th day
Method in brief: (§3)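 Growth inhibition (%) judged by eye at day 14, scale 0 = as untreated to 100 = complete kill. Compounds formulated as wettable powders or emulsifiable concentrates, diluted in 1,000 L water per ha and sprayed onto pot soil one day post-sowing at set active-ingredient rates.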

corn (Zea mays L.) [12] = experiment: as above
Method in brief: as §3

[13] = system: crabgrass (Digitaris sanquinalis L.); experiment: as above
Method in brief: as §3

[14] = system: green foxtail (Setaria viridis L.); experiment: as above
Method in brief: as §3

[15] = system: prickly sida (Sida spinosa L.); experiment: as above
Method in brief: as §3

[16] = system: redroot pigweed (Amaranthus retroflexus L.); experiment: as above
Method in brief: as §3

rice (Oryza sativa L.) [17] = experiment: as above
Method in brief: as §3

[18] = system: soybean (Glycine max Merr.); experiment: as above
Method in brief: as §3

[19] = system: velvetleaf (Abutilon theophrasti MEDIC.); experiment: as above
Method in brief: as §3

[20] = system: wheat (Triticum aestivum L.); experiment: as above
Method in brief: as §3

[21] = visual, 0 = non-treated, 100 = complete kill

Structure (SMILES): CC(=O)Oc1c(C)nn(C)c(=O)c1-c1cc(Oc2ccc3cc(Br)ccc3n2)ccc1C [Compound 2-127]
- Growth inhibition rate (%) Barnyardgrass [1]: 100%
- Growth inhibition rate (%) Corn (corn (Zea mays L.) [2]): 0%
- Growth inhibition rate (%) Crabgrass [3]: 30%
- Growth inhibition rate (%) Green foxtail [4]: 100%
- Growth inhibition rate (%) Italian ryegrass [5]: 78%
- Growth inhibition rate (%) Redroot pigweed [6]: 0%
- Growth inhibition rate (%) Rice (rice (Oryza sativa L.) [7]): 70%
- Growth inhibition rate (%) Soybean [8]: 0%
- Growth inhibition rate (%) Wheat [9]: 100%
- Growth inhibition rate (%) Wild oat [10]: 90%
- Growth inhibition rate (%) Barnyardgrass [11]: 93%
- Growth inhibition rate (%) Corn (corn (Zea mays L.) [12]): 0%
- Growth inhibition rate (%) Crabgrass [13]: 10%
- Growth inhibition rate (%) Green foxtail [14]: 78%
- Growth inhibition rate (%) Prickly sida [15]: 0%
- Growth inhibition rate (%) Redroot pigweed [16]: 0%
- Growth inhibition rate (%) Rice (rice (Oryza sativa L.) [17]): 0%
- Growth inhibition rate (%) Soybean [18]: 0%
- Growth inhibition rate (%) Velvetleaf [19]: 0%
- Growth inhibition rate (%) Wheat [20]: 0%

Structure (SMILES): Cc1ccc(Oc2cnc3cc(Cl)ccc3n2)cc1-c1c(OC(=O)Oc2ccc(F)cc2)c(C)nn(C)c1=O [Compound 3-57]
- Growth inhibition rate (%) Barnyardgrass [1, 21]: 100%
- Growth inhibition rate (%) Corn (corn (Zea mays L.) [2]; [21]): 25%
- Growth inhibition rate (%) Crabgrass [3, 21]: 99%
- Growth inhibition rate (%) Green foxtail [4, 21]: 100%
- Growth inhibition rate (%) Italian ryegrass [5, 21]: 95%
- Growth inhibition rate (%) Redroot pigweed [6, 21]: 0%
- Growth inhibition rate (%) Rice (rice (Oryza sativa L.) [7]; [21]): 0%
- Growth inhibition rate (%) Soybean [8, 21]: 25%
- Growth inhibition rate (%) Wheat [9, 21]: 95%
- Growth inhibition rate (%) Wild oat [10, 21]: 99%
- Growth inhibition rate (%) Barnyardgrass [11]: 90%
- Growth inhibition rate (%) Corn (corn (Zea mays L.) [12]): 40%
- Growth inhibition rate (%) Crabgrass [13]: 30%
- Growth inhibition rate (%) Green foxtail [14]: 95%
- Growth inhibition rate (%) Prickly sida [15]: 0%
- Growth inhibition rate (%) Redroot pigweed [16]: 0%
- Growth inhibition rate (%) Rice (rice (Oryza sativa L.) [17]): 0%
- Growth inhibition rate (%) Soybean [18]: 30%
- Growth inhibition rate (%) Velvetleaf [19]: 0%
- Growth inhibition rate (%) Wheat [20]: 0%

Structure (SMILES): Cn1ncc(O)c(-c2cc(Oc3ncc(C(F)(F)F)cc3Cl)ccc2OC(F)(F)F)c1=O [1-162]
- Growth inhibition rate (%) Barnyardgrass [1]: 100%
- Growth inhibition rate (%) Corn (corn (Zea mays L.) [2]): 98%
- Growth inhibition rate (%) Crabgrass [3]: 100%
- Growth inhibition rate (%) Green foxtail [4]: 100%
- Growth inhibition rate (%) Italian ryegrass [5]: 99%
- Growth inhibition rate (%) Redroot pigweed [6]: 0%
- Growth inhibition rate (%) Rice (rice (Oryza sativa L.) [7]): 93%
- Growth inhibition rate (%) Soybean [8]: 0%
- Growth inhibition rate (%) Wheat [9]: 99%
- Growth inhibition rate (%) Wild oat [10]: 100%
- Growth inhibition rate (%) Barnyardgrass [11]: 100%
- Growth inhibition rate (%) Corn (corn (Zea mays L.) [12]): 40%
- Growth inhibition rate (%) Crabgrass [13]: 100%
- Growth inhibition rate (%) Green foxtail [14]: 100%
- Growth inhibition rate (%) Prickly sida [15]: 0%
- Growth inhibition rate (%) Redroot pigweed [16]: 0%
- Growth inhibition rate (%) Rice (rice (Oryza sativa L.) [17]): 95%
- Growth inhibition rate (%) Soybean [18]: 0%
- Growth inhibition rate (%) Velvetleaf [19]: 0%
- Growth inhibition rate (%) Wheat [20]: 0%

Structure (SMILES): Cc1ccc(Oc2cnc3cc(Cl)ccc3n2)cc1-c1c(OS(=O)(=O)C(F)(F)F)c(C)nn(C)c1=O [Compound 3-69]
- Growth inhibition rate (%) Barnyardgrass [1, 21]: 100%
- Growth inhibition rate (%) Corn (corn (Zea mays L.) [2]; [21]): 20%
- Growth inhibition rate (%) Crabgrass [3, 21]: 95%
- Growth inhibition rate (%) Green foxtail [4, 21]: 100%
- Growth inhibition rate (%) Italian ryegrass [5, 21]: 99%
- Growth inhibition rate (%) Redroot pigweed [6, 21]: 0%
- Growth inhibition rate (%) Rice (rice (Oryza sativa L.) [7]; [21]): 30%
- Growth inhibition rate (%) Soybean [8, 21]: 0%
- Growth inhibition rate (%) Wheat [9, 21]: 98%
- Growth inhibition rate (%) Wild oat [10, 21]: 99%
- Growth inhibition rate (%) Barnyardgrass [11]: 93%
- Growth inhibition rate (%) Corn (corn (Zea mays L.) [12]): 0%
- Growth inhibition rate (%) Crabgrass [13]: 30%
- Growth inhibition rate (%) Green foxtail [14]: 95%
- Growth inhibition rate (%) Prickly sida [15]: 0%
- Growth inhibition rate (%) Redroot pigweed [16]: 0%
- Growth inhibition rate (%) Rice (rice (Oryza sativa L.) [17]): 0%
- Growth inhibition rate (%) Soybean [18]: 0%
- Growth inhibition rate (%) Velvetleaf [19]: 0%
- Growth inhibition rate (%) Wheat [20]: 0%

Structure (SMILES): CC(=O)Oc1c(C)nn(C)c(=O)c1-c1cc(Oc2nc3ccc(C(F)(F)F)nc3o2)ccc1C [Compound 2-121]
- Growth inhibition rate (%) Barnyardgrass [1]: 100%
- Growth inhibition rate (%) Corn (corn (Zea mays L.) [2]): 20%
- Growth inhibition rate (%) Crabgrass [3]: 98%
- Growth inhibition rate (%) Green foxtail [4]: 100%
- Growth inhibition rate (%) Italian ryegrass [5]: 98%
- Growth inhibition rate (%) Redroot pigweed [6]: 20%
- Growth inhibition rate (%) Rice (rice (Oryza sativa L.) [7]): 90%
- Growth inhibition rate (%) Soybean [8]: 0%
- Growth inhibition rate (%) Wheat [9]: 78%
- Growth inhibition rate (%) Wild oat [10]: 98%
- Growth inhibition rate (%) Barnyardgrass [11]: 100%
- Growth inhibition rate (%) Corn (corn (Zea mays L.) [12]): 20%
- Growth inhibition rate (%) Crabgrass [13]: 98%
- Growth inhibition rate (%) Green foxtail [14]: 100%
- Growth inhibition rate (%) Prickly sida [15]: 0%
- Growth inhibition rate (%) Redroot pigweed [16]: 0%
- Growth inhibition rate (%) Rice (rice (Oryza sativa L.) [17]): 0%
- Growth inhibition rate (%) Soybean [18]: 0%
- Growth inhibition rate (%) Velvetleaf [19]: 0%
- Growth inhibition rate (%) Wheat [20]: 0%

Structure (SMILES): CSCCC(=O)Oc1c(C)nn(C)c(=O)c1-c1cc(Oc2cnc3cc(Cl)ccc3n2)ccc1C [Compound 3-50]
- Growth inhibition rate (%) Barnyardgrass [1, 21]: 100%
- Growth inhibition rate (%) Corn (corn (Zea mays L.) [2]; [21]): 15%
- Growth inhibition rate (%) Crabgrass [3, 21]: 98%
- Growth inhibition rate (%) Green foxtail [4, 21]: 100%
- Growth inhibition rate (%) Italian ryegrass [5, 21]: 93%
- Growth inhibition rate (%) Redroot pigweed [6, 21]: 0%
- Growth inhibition rate (%) Rice (rice (Oryza sativa L.) [7]; [21]): 60%
- Growth inhibition rate (%) Soybean [8, 21]: 10%
- Growth inhibition rate (%) Wheat [9, 21]: 99%
- Growth inhibition rate (%) Wild oat [10, 21]: 98%
- Growth inhibition rate (%) Barnyardgrass [11]: 99%
- Growth inhibition rate (%) Corn (corn (Zea mays L.) [12]): 0%
- Growth inhibition rate (%) Crabgrass [13]: 80%
- Growth inhibition rate (%) Green foxtail [14]: 98%
- Growth inhibition rate (%) Prickly sida [15]: 0%
- Growth inhibition rate (%) Redroot pigweed [16]: 0%
- Growth inhibition rate (%) Rice (rice (Oryza sativa L.) [17]): 0%
- Growth inhibition rate (%) Soybean [18]: 0%
- Growth inhibition rate (%) Velvetleaf [19]: 0%
- Growth inhibition rate (%) Wheat [20]: 0%

Structure (SMILES): CC(=O)Oc1c(C)nn(C)c(=O)c1-c1cc(Oc2ncc(C(F)(F)F)cc2C(F)(F)F)ccc1C [Compound 2-116]
- Growth inhibition rate (%) Barnyardgrass [1]: 100%
- Growth inhibition rate (%) Corn (corn (Zea mays L.) [2]): 100%
- Growth inhibition rate (%) Crabgrass [3]: 100%
- Growth inhibition rate (%) Green foxtail [4]: 100%
- Growth inhibition rate (%) Italian ryegrass [5]: 100%
- Growth inhibition rate (%) Redroot pigweed [6]: 0%
- Growth inhibition rate (%) Rice (rice (Oryza sativa L.) [7]): 90%
- Growth inhibition rate (%) Soybean [8]: 10%
- Growth inhibition rate (%) Wheat [9]: 99%
- Growth inhibition rate (%) Wild oat [10]: 100%
- Growth inhibition rate (%) Barnyardgrass [11]: 100%
- Growth inhibition rate (%) Corn (corn (Zea mays L.) [12]): 85%
- Growth inhibition rate (%) Crabgrass [13]: 100%
- Growth inhibition rate (%) Green foxtail [14]: 100%
- Growth inhibition rate (%) Prickly sida [15]: 0%
- Growth inhibition rate (%) Redroot pigweed [16]: 0%
- Growth inhibition rate (%) Rice (rice (Oryza sativa L.) [17]): 0%
- Growth inhibition rate (%) Soybean [18]: 0%
- Growth inhibition rate (%) Velvetleaf [19]: 0%
- Growth inhibition rate (%) Wheat [20]: 60%

Structure (SMILES): Cc1ccc(Oc2ncc(C(F)(F)F)cc2Cl)cc1-c1c(O)c(C)nn(C)c1=O [1-1]
- Growth inhibition rate (%) Barnyardgrass [1]: 100%
- Growth inhibition rate (%) Corn (corn (Zea mays L.) [2]): 90%
- Growth inhibition rate (%) Crabgrass [3]: 95%
- Growth inhibition rate (%) Green foxtail [4]: 99%
- Growth inhibition rate (%) Italian ryegrass [5]: 98%
- Growth inhibition rate (%) Redroot pigweed [6]: 10%
- Growth inhibition rate (%) Rice (rice (Oryza sativa L.) [7]): 80%
- Growth inhibition rate (%) Soybean [8]: 0%
- Growth inhibition rate (%) Wheat [9]: 65%
- Growth inhibition rate (%) Wild oat [10]: 98%
- Growth inhibition rate (%) Barnyardgrass [11]: 85%
- Growth inhibition rate (%) Corn (corn (Zea mays L.) [12]): 50%
- Growth inhibition rate (%) Crabgrass [13]: 100%
- Growth inhibition rate (%) Green foxtail [14]: 100%
- Growth inhibition rate (%) Prickly sida [15]: 0%
- Growth inhibition rate (%) Redroot pigweed [16]: 0%
- Growth inhibition rate (%) Rice (rice (Oryza sativa L.) [17]): 20%
- Growth inhibition rate (%) Soybean [18]: 0%
- Growth inhibition rate (%) Velvetleaf [19]: 0%
- Growth inhibition rate (%) Wheat [20]: 0%
